Measured values as given in US20240374626A1, “METHODS OF ENHANCING MILK PRODUCTION IN LACTATING MAMMALIAN SUBJECTS” (priority 2023, published 2024).

How the values were obtained:
Format in all cases: in vivo, mouse
γH2AX = assay: Contralateral intraductal injection: γH2AX IHC in CK8+ luminal cells of MG; details: Hydroxyurea IDI at PD8.5 and PD12.5 vs contralateral PBS, at PD13.5
Experimental: (§1) Nulliparous analysis was performed using adult (10-12-week-old) female mice. For timed pregnancies and lactation analysis, CD-1 pregnant adult females were obtained from Charles Rivers. Embryos were examined at the time of mammary gland harvesting to confirm pregnancy state. […] Plugged mice were considered to be PD0.5 on the day of the observed plug. All females used in this study were age matched.
(§2) Mice were anesthetized with isoflurane (VetOne, 501017) Prior to intraductal injections, hair was removed from around the nipples using Nair hair remover. Injections into the duct of the nipple were performed with 33 G needles (Hamilton, 7803-05) and a volume of 40 μl per gland. Right inguinal, abdominal and thoracic glands were injected with doxorubicin (1.5 μg per gland, Cayman Chemical, 15007), nucleosides (40 μl per gland, Millipore-Sigma, ES-008-D) or Mk-1775 (50 μg per gland, Cayman Chemical, 21266), and left glands were injected with PBS or DMSO (Thermo Scientific, BP231) diluted in PBS.
(§3) Mammary gland tissue was fixed in 10% neutral buffered formalin (EMD Millipore, MR0458682) at 4° C. overnight. Fixation was quenched using 0.2% glycine (Fisher Scientific, BP381) in PBS, for 1 h at room temperature. […] Integrated density of nuclear γH2AX and pATR was quantified using ImageJ.

CK8+ luminal cells = assay: Contralateral intraductal injection: FACS DNA content analysis of CK8+ luminal cells; details: Hydroxyurea IDI at PD8.5 and PD12.5 vs contralateral PBS, by LD5
MG alveoli = assay: Contralateral intraductal injection: milk staining (IHC) integrated density per alveolus; details: Hydroxyurea IDI at PD8.5 and PD12.5 vs contralateral PBS, LD2 MG section
Experimental: as §1
(§4) Mice were anesthetized with isoflurane (VetOne, 501017) Prior to intraductal injections, hair was removed from around the nipples using Nair hair remover. Injections into the duct of the nipple were performed with 33 G needles (Hamilton, 7803-05) and a volume of 40 μl per gland. […]
Mammary gland tissue was fixed in 10% neutral buffered formalin (EMD Millipore, MR0458682) at 4° C. overnight. […] Incubation with secondary antibodies [(donkey anti-Rat 647 (Thermo-Invitrogen; A48272) and donkey anti-Rabbit 488 (Thermo-Invitrogen; A32790)] was performed for 2 h at room temperature. Sections were washed with 0.3% triton in PBS for 30 min (×3) at room temperature and mounted using flouromount-G (Southern Biotech, 0100-01). Image acquisition was performed using Zeiss Axio Imager Microscope. Macros were generated to quantify lumen milk integrated density per alveolus using Image J.

pATR = assay: Contralateral intraductal injection: pATR IHC in CK8+ luminal cells of MG; details: Hydroxyurea IDI at PD8.5 and PD12.5 vs contralateral PBS, at PD13.5
Experimental: as §1, §2, §3

Csn2 = assay: Contralateral intraductal injection: Csn2 expression in MGs by RT-qPCR; details: Hydroxyurea IDI at PD8.5 and PD12.5 vs contralateral PBS, LD2 MGs
Experimental: as §1, §2
For RNA isolation from FACS purified populations, mammary gland cell suspensions were blocked using Mouse BD Fc Block™ (BD Biosciences) for 10 min. Cells were subsequently resuspended on 1×PBS at a density of 10^7 cells/ml and stained with the following antibodies for 30 min on ice: anti-CD24 PE (Stem Cell Technologies, 60099PE.1), anti-CD29 PE-Cy7 (BioLegend, 102222), anti-CD45-APC (BioLegend,105826), Ter119-APC (BD Biosciences, 561033), CD31-ACP (BD Biosciences, 551262). Propidium iodide at a final concentration of 0.5 μg/ml was used for the discrimination of dead cells. Stromal, basal and luminal mammary populations were sorted using a BD FACS Aria II Cell Sorter. […] Total RNA quality was analyzed by agarose gel electrophoresis and quantified using an ND-1000 spectrophotometer (NanoDrop). cDNA was prepared from 500-1000 ng of total RNA using iScript cDNA synthesis kit (Bio-Rad, 1708841). Quantitative RT-qPCR was performed in triplicates using SsoAdvanced Universal SYBR Green Supermix, (Bio-Rad, 1725272). […]

Wee1 = assay: Contralateral intraductal injection: Wee1 expression in whole MG tissue by RT-qPCR; details: IDI of hydroxyurea into pregnant MG vs contralateral PBS
Experimental: as §1, §4
For RNA isolation from FACS purified populations, mammary gland cell suspensions were blocked using Mouse BD Fc Block™ (BD Biosciences) for 10 min. […] Total RNA quality was analyzed by agarose gel electrophoresis and quantified using an ND-1000 spectrophotometer (NanoDrop). cDNA was prepared from 500-1000 ng of total RNA using iScript cDNA synthesis kit (Bio-Rad, 1708841). Quantitative RT-qPCR was performed in triplicates using SsoAdvanced Universal SYBR Green Supermix, (Bio-Rad, 1725272). […]

SMILES: NC(=O)NO [Hydroxyurea]
- γH2AX in CK8+ population (γH2AX): increased
- decrease in 2C CK8+ population (in the overall population) (CK8+ luminal cells): 5.5%
- increase in 4C CK8+ population (in the overall population) (CK8+ luminal cells): 2%
- increase in >4C CK8+ population (in the overall population) (CK8+ luminal cells): 48%
- increase in milk (average integrated density of milk staining among alveoli) (MG alveoli): ~15%
- pATR in CK8+ population (pATR): increased
- Csn2 expression, RT-qPCR (Csn2): increase
- Wee1 expression in whole MG tissue, RT-qPCR (Wee1): upregulated
